# Results taken from ChEMBL document CHEMBL5034019, “Discovery of the Next-Generation Pan-TRK Kinase Inhibitors for the Treatment of Cancer” (J Med Chem, 2021).
# Active and inactive are the calls of the source. The rule behind the calls is not given here.
# Tests used:
# [1] = Metabolic stability in dog liver microsomes assessed as intrinsic clearance at 1 uM by LC-MS/MS analysis; format: ADME, Canis lupus familiaris, Microsome; conditions: read-out: CLH
# [2] = test system: BaF3; assay: cells; conditions: Mus musculus
# Description: Cytotoxicity against mouse BaF3 cells transfected with TrKA assessed as reduction in cell viability by MTT assay
# [3] = test system: BaF3; assay: Cytotoxicity against mouse BaF3 cells transfected with TrKA G667A mutant assessed as reduction in cell viability by MTT assay; format: functional, cell-based
# [4] = Kinetic solubility of the compound; format: physicochemical; conditions: read-out: Kinetic_solubility
# [5] = target: Cytochrome P450 3A4 (Homo sapiens, UniProt P08684); assay: Inhibition of CYP3A4 in human pooled liver microsomes using midazolam and testosterone as substrate in presence of NADPH by LC-MS/MS analysis; format: ADME
# Sequence of Cytochrome P450 3A4 (P08684 whole entry): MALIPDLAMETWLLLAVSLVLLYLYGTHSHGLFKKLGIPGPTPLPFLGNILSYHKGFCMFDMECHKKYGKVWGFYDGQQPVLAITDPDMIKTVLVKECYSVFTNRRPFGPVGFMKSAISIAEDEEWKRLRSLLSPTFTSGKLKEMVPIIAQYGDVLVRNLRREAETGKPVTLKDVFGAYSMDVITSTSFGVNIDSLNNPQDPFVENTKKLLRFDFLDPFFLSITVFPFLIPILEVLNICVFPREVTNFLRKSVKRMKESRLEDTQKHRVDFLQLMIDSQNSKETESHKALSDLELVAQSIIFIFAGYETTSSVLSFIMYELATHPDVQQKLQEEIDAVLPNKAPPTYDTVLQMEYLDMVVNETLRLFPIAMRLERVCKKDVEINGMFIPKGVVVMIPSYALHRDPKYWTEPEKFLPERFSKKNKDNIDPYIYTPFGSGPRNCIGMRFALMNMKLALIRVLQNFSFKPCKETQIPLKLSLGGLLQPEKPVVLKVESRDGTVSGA
# [6] = target: Cytochrome P450 2D6 (Homo sapiens, UniProt P10635); assay: Inhibition of CYP2D6 in human pooled liver microsomes using dextromethorphan as substrate in presence of NADPH by LC-MS/MS analysis; format: ADME
# Sequence of Cytochrome P450 2D6 (P10635 whole entry): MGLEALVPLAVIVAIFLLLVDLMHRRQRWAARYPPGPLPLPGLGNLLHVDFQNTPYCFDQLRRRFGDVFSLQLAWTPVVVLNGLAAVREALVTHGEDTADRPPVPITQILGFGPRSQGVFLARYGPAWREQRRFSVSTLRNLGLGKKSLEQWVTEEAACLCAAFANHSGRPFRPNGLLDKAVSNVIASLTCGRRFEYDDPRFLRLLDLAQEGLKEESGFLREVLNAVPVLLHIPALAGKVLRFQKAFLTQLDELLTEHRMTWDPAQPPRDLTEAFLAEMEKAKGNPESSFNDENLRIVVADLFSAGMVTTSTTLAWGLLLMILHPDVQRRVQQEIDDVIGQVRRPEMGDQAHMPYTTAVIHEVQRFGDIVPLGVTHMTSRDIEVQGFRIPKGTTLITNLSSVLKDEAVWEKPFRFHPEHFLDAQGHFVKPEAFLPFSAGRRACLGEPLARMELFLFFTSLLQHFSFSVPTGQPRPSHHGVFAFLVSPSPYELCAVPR
# [7] = Metabolic stability in human liver microsomes assessed as intrinsic clearance at 1 uM by LC-MS/MS analysis; format: ADME, Microsome; conditions: read-out: CLH
# [8] = test system: BaF3; assay: Cytotoxicity against mouse BaF3 cells transfected with TrKA G595R mutant assessed as reduction in cell viability by MTT assay; format: functional, cell-based
# [9] = in vitro; conditions: human, Caco-2
# Description: Efflux ratio of apparent permeability from basolateral to apical over apical to basolateral side in human Caco2 cells incubated for 2 hrs by LC-MS/MS analysis
# [10] = test system: BaF3; assay: Cytotoxicity against mouse BaF3 cells transfected with SLC34A2-Ros1 assessed as reduction in cell viability by MTT assay; format: functional, cell-based
# [11] = Protein binding in dog plasma assessed as unbound fraction by LC-MS/MS based equilibrium dialysis method; format: ADME, cell-free, Canis lupus familiaris
# [12] = Half life in female Sprague-Dawley rat at 2 mg/kg, iv measured up to 24 hrs by LC-MS/MS analysis; format: ADME, organism-based; conditions: in vivo
# [13] = Protein binding in mouse plasma assessed as unbound fraction by LC-MS/MS based equilibrium dialysis method; format: ADME, cell-free
# [14] = Apparent permeability across apical to basolateral side in human Caco-2 cells incubated for 2 hrs by LC-MS/MS analysis; format: ADME, cell-based
# [15] = target: Platelet-derived growth factor receptor alpha (Homo sapiens) (UniProt P16234); assay: Inhibition of human PDGFRalpha (550 to end residues) assessed as residual activity at 0.5 uM poly(Glu, Tyr) 4:1 as substrate measured after 40 mins in presence of [gamma33P]ATP by scintillation counting method relative to control
# [16] = AUC (0 to t) in male Sprague-Dawley rat at 2 mg/kg, iv measured up to 24 hrs by LC-MS/MS analysis; format: ADME, organism-based; design: route intravenous, dose 2 mg/kg, time <=24; conditions: in vivo
# [17] = test system: BaF3; assay: Cytotoxicity against mouse BaF3 cells transfected with TrKA G623R mutant assessed as reduction in cell viability by MTT assay; format: functional, cell-based
# [18] = target: NT-3 growth factor receptor (Homo sapiens, UniProt Q16288)
# Sequence of NT-3 growth factor receptor (Q16288 whole entry): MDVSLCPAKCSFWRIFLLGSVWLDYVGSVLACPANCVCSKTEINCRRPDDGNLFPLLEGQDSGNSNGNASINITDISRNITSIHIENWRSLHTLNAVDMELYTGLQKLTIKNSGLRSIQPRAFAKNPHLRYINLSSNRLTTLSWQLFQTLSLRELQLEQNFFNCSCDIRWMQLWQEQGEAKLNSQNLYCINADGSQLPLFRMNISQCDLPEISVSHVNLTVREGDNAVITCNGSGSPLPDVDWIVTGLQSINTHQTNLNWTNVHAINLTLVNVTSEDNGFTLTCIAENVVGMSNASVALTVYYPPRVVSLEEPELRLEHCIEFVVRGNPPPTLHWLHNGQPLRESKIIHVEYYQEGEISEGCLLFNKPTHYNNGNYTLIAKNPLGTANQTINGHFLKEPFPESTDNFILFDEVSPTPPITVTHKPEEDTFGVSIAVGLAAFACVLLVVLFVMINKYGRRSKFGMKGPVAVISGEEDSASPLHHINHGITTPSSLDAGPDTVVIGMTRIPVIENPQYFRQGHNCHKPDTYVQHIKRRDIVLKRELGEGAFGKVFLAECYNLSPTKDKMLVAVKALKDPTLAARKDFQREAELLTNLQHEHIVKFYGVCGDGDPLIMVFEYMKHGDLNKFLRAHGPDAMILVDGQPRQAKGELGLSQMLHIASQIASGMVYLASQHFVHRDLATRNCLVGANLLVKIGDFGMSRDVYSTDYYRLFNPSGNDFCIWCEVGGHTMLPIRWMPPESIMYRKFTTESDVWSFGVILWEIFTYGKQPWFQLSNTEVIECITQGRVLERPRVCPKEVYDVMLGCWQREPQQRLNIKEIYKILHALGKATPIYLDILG
# Description: Inhibition of TrKC (unknown origin) incubated for 120 mins in presence of 33P-ATP
# [19] = Metabolic stability in rat liver microsomes assessed as intrinsic clearance at 1 uM by LC-MS/MS analysis; format: ADME, Microsome; conditions: read-out: CLH
# [20] = test system: BaF3; assay: Cytotoxicity against mouse BaF3 cells transfected with TrKA F589L mutant assessed as reduction in cell viability by MTT assay; format: functional, cell-based
# [21] = target: Tyrosine-protein kinase JAK2 (Homo sapiens) (UniProt O60674); assay: Inhibition of human JAK2 (808 to end residues) assessed as residual activity at 0.5 uM using KTFCGTPEYLAPEVRREPRILSEEEQEMFRDFDYIADWC as substrate after 40 mins by [gamma-33ATP] radiometric assay relative to control
# Sequence of Tyrosine-protein kinase JAK2 (Homo sapiens) (O60674 whole entry): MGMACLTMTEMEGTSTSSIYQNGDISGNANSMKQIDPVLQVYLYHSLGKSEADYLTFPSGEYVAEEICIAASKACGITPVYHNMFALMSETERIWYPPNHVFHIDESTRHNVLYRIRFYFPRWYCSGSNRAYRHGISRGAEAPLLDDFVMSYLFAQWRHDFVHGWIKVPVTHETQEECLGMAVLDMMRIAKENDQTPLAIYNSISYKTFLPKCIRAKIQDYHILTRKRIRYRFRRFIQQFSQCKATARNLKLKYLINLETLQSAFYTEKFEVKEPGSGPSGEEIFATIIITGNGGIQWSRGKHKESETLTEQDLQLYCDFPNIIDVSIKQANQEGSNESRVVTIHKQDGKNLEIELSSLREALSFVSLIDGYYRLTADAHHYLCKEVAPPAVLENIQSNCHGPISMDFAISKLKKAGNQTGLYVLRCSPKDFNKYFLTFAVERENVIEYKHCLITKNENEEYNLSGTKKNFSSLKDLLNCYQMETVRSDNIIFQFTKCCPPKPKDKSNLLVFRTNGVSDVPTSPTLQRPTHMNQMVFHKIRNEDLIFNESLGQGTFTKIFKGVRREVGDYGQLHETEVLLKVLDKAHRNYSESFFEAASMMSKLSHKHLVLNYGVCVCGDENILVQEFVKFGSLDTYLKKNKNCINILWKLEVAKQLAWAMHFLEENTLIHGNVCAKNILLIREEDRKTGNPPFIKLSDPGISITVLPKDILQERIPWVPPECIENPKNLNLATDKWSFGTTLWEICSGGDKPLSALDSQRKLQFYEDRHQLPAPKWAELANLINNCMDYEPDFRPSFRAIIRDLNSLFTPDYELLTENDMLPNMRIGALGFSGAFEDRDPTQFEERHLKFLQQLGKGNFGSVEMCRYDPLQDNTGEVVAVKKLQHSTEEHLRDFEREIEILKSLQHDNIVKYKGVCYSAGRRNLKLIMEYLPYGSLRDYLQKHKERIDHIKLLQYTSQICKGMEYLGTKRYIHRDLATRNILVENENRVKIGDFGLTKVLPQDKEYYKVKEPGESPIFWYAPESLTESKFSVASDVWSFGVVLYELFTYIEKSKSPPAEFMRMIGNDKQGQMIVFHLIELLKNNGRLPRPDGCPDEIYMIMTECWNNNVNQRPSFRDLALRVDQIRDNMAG
# [22] = target: Cytochrome P450 2C19 (Homo sapiens, UniProt P33261); assay: Inhibition of CYP2C19 in human pooled liver microsomes using S-mephenytoin as substrate in presence of NADPH by LC-MS/MS analysis; format: ADME
# Sequence of Cytochrome P450 2C19 (P33261 whole entry): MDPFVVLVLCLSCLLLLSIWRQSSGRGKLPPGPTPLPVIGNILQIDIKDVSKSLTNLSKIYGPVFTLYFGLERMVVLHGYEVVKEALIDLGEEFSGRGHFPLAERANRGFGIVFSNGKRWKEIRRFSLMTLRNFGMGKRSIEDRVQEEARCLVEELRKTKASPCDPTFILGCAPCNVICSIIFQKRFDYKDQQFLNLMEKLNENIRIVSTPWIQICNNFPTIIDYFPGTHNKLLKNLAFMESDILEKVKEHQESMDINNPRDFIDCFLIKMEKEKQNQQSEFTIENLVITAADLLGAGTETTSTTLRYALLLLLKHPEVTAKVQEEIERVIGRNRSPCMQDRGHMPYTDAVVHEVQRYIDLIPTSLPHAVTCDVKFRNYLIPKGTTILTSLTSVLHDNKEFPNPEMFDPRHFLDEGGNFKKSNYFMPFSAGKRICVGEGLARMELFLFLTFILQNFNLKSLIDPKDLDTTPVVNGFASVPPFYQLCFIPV
# [23] = Protein binding in human plasma assessed as unbound fraction by LC-MS/MS based equilibrium dialysis method; format: ADME, cell-free
# [24] = Metabolic stability in mouse liver microsomes assessed as intrinsic clearance at 1 uM by LC-MS/MS analysis; format: ADME, Microsome; conditions: read-out: CLH
# [25] = target: Cytochrome P450 2C9 (Homo sapiens, UniProt P11712); assay: Inhibition of CYP2C9 in human pooled liver microsomes using diclofenac as substrate in presence of NADPH by LC-MS/MS analysis; format: ADME
# Sequence of Cytochrome P450 2C9 (P11712 whole entry): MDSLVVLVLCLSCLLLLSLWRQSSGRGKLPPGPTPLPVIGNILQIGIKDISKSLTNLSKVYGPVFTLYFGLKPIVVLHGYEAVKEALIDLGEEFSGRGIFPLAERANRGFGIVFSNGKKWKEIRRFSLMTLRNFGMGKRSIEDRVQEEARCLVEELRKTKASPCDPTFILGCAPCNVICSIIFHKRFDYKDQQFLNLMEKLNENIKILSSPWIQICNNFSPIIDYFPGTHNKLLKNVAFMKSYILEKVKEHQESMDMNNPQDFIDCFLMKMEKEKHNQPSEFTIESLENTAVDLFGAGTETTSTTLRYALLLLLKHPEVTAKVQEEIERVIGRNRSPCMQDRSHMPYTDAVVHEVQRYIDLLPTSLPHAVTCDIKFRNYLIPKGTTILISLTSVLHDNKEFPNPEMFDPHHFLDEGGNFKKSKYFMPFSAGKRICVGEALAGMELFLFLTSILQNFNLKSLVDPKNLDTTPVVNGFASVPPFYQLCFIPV
# [26] = test system: Hepatocyte growth factor receptor (Homo sapiens), P08581 [Y1248D]; assay: Inhibition of recombinant human Met Y1248D mutant (974 to end residues) assessed as residual activity at 0.5 uM using KKKGQEEEYVFIE as substrate incubated for 40 mins in presence of [gamma-33P]-ATP by scintillation counting method relative to control
# [27] = target: T1, Cytochrome P450 1A2 (Homo sapiens, UniProt P05177); assay: Inhibition of CYP1A2 in human pooled liver microsomes using phenacetin as substrate in presence of NADPH by LC-MS/MS analysis; format: ADME
# T1 sequence (P05177 whole entry): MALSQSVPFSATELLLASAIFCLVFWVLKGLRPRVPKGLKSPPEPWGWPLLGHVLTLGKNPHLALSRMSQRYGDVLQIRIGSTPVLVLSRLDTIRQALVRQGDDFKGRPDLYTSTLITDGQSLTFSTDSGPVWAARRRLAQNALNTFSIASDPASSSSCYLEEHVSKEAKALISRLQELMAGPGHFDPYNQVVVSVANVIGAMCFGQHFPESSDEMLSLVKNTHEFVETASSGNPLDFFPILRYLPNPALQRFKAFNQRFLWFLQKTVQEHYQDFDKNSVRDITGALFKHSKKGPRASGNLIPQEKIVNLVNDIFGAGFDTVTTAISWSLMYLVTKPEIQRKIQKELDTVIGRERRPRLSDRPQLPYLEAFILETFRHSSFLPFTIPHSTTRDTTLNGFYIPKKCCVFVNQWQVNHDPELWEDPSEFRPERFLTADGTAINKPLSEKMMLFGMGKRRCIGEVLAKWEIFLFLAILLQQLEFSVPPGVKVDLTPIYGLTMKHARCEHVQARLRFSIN
# [28] = Protein binding in rat plasma assessed as unbound fraction by LC-MS/MS based equilibrium dialysis method; format: ADME, cell-free
# [29] = target: Tyrosine-protein kinase JAK3 (Homo sapiens) (UniProt P52333); assay: Inhibition of human JAK3 (781 to end residues) assessed as residual activity at 0.5 uM using GGEEEEYFELVKKKK as substrate after 40 mins by [gamma-33ATP] radiometric assay relative to control
# Sequence of Tyrosine-protein kinase JAK3 (Homo sapiens) (P52333 whole entry): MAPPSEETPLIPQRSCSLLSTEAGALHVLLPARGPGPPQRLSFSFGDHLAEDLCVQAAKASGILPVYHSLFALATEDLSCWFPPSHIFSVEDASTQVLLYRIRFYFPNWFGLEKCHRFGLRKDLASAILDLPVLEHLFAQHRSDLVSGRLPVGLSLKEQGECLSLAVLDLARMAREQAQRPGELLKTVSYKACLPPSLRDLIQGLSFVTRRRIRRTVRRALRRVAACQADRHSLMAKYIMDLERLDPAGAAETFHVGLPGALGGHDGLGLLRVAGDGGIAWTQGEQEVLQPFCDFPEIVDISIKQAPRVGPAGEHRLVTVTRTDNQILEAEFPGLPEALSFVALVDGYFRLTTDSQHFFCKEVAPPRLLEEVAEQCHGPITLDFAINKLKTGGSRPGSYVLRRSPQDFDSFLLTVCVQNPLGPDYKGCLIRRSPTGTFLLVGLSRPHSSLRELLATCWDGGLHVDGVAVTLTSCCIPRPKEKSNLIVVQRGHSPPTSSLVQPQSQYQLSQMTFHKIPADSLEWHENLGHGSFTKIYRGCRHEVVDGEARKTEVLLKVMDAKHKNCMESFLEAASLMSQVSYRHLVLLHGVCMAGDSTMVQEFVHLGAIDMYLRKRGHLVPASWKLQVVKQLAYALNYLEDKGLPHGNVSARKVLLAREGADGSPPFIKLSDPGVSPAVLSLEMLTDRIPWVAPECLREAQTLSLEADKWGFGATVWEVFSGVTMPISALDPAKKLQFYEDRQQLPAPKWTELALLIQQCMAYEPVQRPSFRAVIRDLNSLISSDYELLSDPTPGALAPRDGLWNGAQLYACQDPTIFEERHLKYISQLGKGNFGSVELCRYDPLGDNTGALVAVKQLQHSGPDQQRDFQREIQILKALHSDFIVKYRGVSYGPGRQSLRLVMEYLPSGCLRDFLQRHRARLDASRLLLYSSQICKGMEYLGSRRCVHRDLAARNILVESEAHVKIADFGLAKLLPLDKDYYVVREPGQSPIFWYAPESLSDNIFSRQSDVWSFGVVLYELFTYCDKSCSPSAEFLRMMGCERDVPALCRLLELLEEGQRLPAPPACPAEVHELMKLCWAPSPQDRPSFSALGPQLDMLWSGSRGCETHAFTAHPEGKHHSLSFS
# [30] = test system: BaF3; assay: Antitumor activity against mouse BaF3 cells transfected with LMNA-NTRK1 xenografted in mouse assessed as tumor growth inhibition at 100 mg/kg, po administered once daily for 21 days and measured twice weekly; conditions: time 21.0 day
# [31] = Toxicity in mouse xenografted with mouse BaF3 cells transfected with ETV6-NTRK3 assessed as unkempt appearance at 100 mg/kg, po administered once daily for 21 days and measured twice weekly; conditions: in vivo, 504 h
# [32] = Toxicity in mouse xenografted with mouse BaF3 cells transfected with LMNA-NTRK1 assessed as unkempt appearance at 100 mg/kg, po administered once daily for 21 days and measured twice weekly; conditions: in vivo, 504 h
Structure (SMILES),CLint scaled at 1 µM [1],IC50 [2],IC50 [3],IC50 [5],IC50 [6],CLint scaled at 1 µM [7],IC50 [8],IC50 [10],fraction unbound [11],fraction unbound [13],Papp A→B at 2 h [14],IC50 [17],CLint scaled at 1 µM [19],IC50 [20],IC50 [22],fraction unbound [23],CLint scaled at 1 µM [24],IC50 [25],IC50 [27],fraction unbound [28],also measured
O=C1NC2(CC2)COc2ncc(F)cc2[C@H]2COCCN2c2ccn3ncc1c3n2,< 10.7 mL/min/kg,0.6 nM,0.8 nM,> 50000 nM,> 100000 nM,17.7 mL/min/kg,7.7 nM,2.3 nM,0.21,0.11,12 ×10⁻⁶ cm/s,2.7 nM,28.8 mL/min/kg,4.9 nM,89000 nM,0.16,1500 mL/min/kg,18100 nM,> 100000 nM,0.12,solubility kinetic [4]: 193 µM; efflux ratio at 2 h [9]: 2.8; half-life [12]: 2.21 h; Activity [15]: 106%; AUC(0-t) at 24 h [16]: 4.19 µM·h; IC50 [18]: 0.2 nM; Activity [21]: 44%; Activity [26]: 96%; Activity [29]: 94%
C[C@@H]1CCc2ncc(F)cc2[C@H]2CCCN2c2ccn3ncc(c3n2)C(=O)N1 [SELITRECTINIB],38 mL/min/kg,4.9 nM,24.4 nM,> 50000 nM,> 50000 nM,76 mL/min/kg,6.8 nM,36.7 nM,0.2,0.02,8.4 ×10⁻⁶ cm/s,2.7 nM,92 mL/min/kg,25.4 nM,> 50000 nM,0.34,1350 mL/min/kg,> 50000 nM,> 50000 nM,0.03,Activity [30]: Active; Activity [31]: Toxic; Activity [32]: Toxic
